Results reported in patent publication US20220354852A1, “TARGETING WNT SIGNALING FOR IMPROVED GLIOMA IMMUNOTHERAPY” (CITY OF HOPE, priority 2021, published 2022).

Experiments:
[1] = system: subcutaneous murine K-luc GBM tumors; experiment: NanoString mouse immune panel of subcutaneous K-luc tumors; assay type: in vivo; conditions: 50 mg/kg/day, compared with untreated controls on day 21
Excerpt: FIG. 23. NanoString analysis of subcutaneous K-luc tumors using the mouse immune panel. 750 mRNA concentration measurements, measured in baseline cells first at day 0 and then in subcutaneously transplanted tumors in separate mice at day 7, 14, and 21 (n=2). Sample 507 is a tumor that was not treated with ICG-001, was harvested on day 21, and is a baseline for comparison for days 7, 14, and 21. The log10 fold-change in mRNA expression was considered between 507 and the other samples.
Animal studies. Syngeneic mice (C57BL/6) of 8-12 weeks of age were implanted with subcutaneous K-Luc tumors (n=8). 7 days after, when tumors became palpable and after confirmation of the tumor presence with BLU imaging, mice were implanted with Alzet minipumps with ICG001 (50 mg/kg/day). Pumps were continuously providing a daily dose of ICG-001. Tumor tissues were harvested on days 7, 14, 21 post pump implantation and tumors were prepared for IHC (paraffin sections) and Nanostring analysis.
NanoString analysis of subcutaneous murine K-luc GBM tumors The ICG-001 and saline control treated tumors were harvested on days 7, 14, and 21. Freshly frozen K-luc tumors were used for RNA isolation and NanoString analysis to determine endogenous immune response upon treatment with ICG-001. […]

[2] = system: Wnt target genes BIRC5/Survivin and EphB2; experiment: Quantitative RT-PCR of Wnt target genes in mouse glioma cell lines; assay type: cell-based
Method: FIG. 15. Expression of target genes post-ICG-001 treatment (0-10 μM) by RT-PCR using (A-C) mouse Survivin in GL261-IL13, GL261, and K-luc cells. (D) Survivin in PBT147 human glioma cells. (E, F) Luciferase reporter assay indicating downregulation of Survivin/BIRC5 in PBT017 and PBT030 cell lines.
FIG. 16 is a table showing the expression of the target genes survivin/BIRC5 post-ICG-001 treatment ([…]) as detected by RT-PCR and Luciferase Reporter Assay.
ICG-001 differentially affects the expression of the Wnt target genes BIRC5/Survivin and EphB2 in vitro. […] The effects of ICG-001 on Wnt/CBP/β-catenin signaling were further confirmed using a Survivin-luciferase reporter assay (FIG. 15). ICG-001's selective effects on the expression of Survivin and EphB2 may serve as indicators of ICG-001 on target tissue activity in vivo (FIG. 16) and a readout for pharmacokinetics/pharmacodynamics (PK/PD) as used previously in clinical trials with the second-generation CBP/β-catenin specific antagonist PRI-724 (Anthony et al. 2013).

[3] = system: normal somatic stem cell population; conditions: preclinical studies; cited from earlier work
[4] = system: PBT147 and PBT030 glioma cell lines; experiment: Global proteomic analysis of PBT147 and PBT030; assay type: cell-based, human; conditions: 72 h
Method: FIG. 18. Proteomics analysis of PBT147 and PBT030 cell lines treated with ICG-001 (0-10 μM) for 72 h. (A) Protein density was calculated by the difference in log normalized levels for each protein between the four treated samples and the appropriate untreated sample. (B) Calculating the difference in log levels corresponds also to looking at the log of the fold changes in each protein. For both cell lines, the log fold-change for each protein at […] was plotted against the log fold-change at 10 μg. These plots are shown in A, with the points color-coded by cell line. This highlights a positive linear relationship between the log fold changes at 5 μg and 10 μg in both cell lines. […] The heatmap has been generated using Ward's method for clustering and the Manhattan (L1) distance. To highlight patterns of similar changes in regulation over cell lines and doses, rather than absolute differences in protein levels, quantile normalization has been used before creating the heatmap, with protein levels in each sample being normalized to that of a uniform distribution on −1≤x≤1.
FIG. 19 is a table showing a proteomics analysis at 72 hours for two cell lines (PB147, PB030) treated with ICG-001 in vitro at three doses (0 μg, 5 μg, 10 μg). 1557 proteins were quantified.
Proteomics data analysis. […] To examine the effect of the drug, the difference in log normalized levels for each protein between the four treated samples and the appropriate untreated sample was calculated, which corresponds to examining the log of the fold changes in each protein after treatment. For each of the two cell lines, the log fold change for each protein at 5 μg was plotted against the log fold change at 10 μg. These plots are shown in FIG. 17, with the points colored-coded by cell line. The line of (linear) regression is calculated and shown for each cell line.
The heatmap has been constructed by using Ward's method for clustering and the Manhattan (L1) distance. To highlight patterns of similar changes in regulation over cell-lines and doses, rather than absolute differences in protein levels, quantile normalization has been used before creating the heatmap, with protein levels in each sample being normalized those of a uniform distribution on −1≤x≤1.
Proteomics analyses of the PBT147 and PBT030 glioma cell lines after treatment with ICG-001 to elucidate targeted pathways in vitro. […]
To examine the effect of ICG-001, the difference in log-normalized levels was calculated for each protein between the four treated samples and the appropriate untreated samples (which corresponds to looking at the log of the fold changes in each protein). […] The line of (linear) regression is calculated and plotted for each cell line. […]

For `O=C1[C@H](Cc2ccc(O)cc2)N2C(=O)CCN(C(=O)NCc3ccccc3)[C@H]2CN1Cc1cccc2ccccc12` [ICG-001], the “immune pathways (mRNA) in tumor versus untreated controls” value [1] was “concentration dependent increase in immune pathways”, the “expression of Wnt/p300/β-catenin target gene EphB2” value [2] was “upregulating” and the “expression of Wnt/CBP/β-catenin target gene BIRC5/Survivin” value ([2]; ICG-001 0-10 μM) was “selectively downregulated”. The therapy-induced toxicity [3] was “ameliorated therapy-induced toxicity”, the “dose effect on protein fold change, PBT030 versus PBT147” value ([4]; 5 μM versus 10 μM) was “significantly greater in PBT030 than PBT147” and the “HA and LDHA protein expression” value ([4]; ICG-001 0, 5, and 10 μM) was “loss”. The PKM1 protein expression ([4]; ICG-001 0, 5, and 10 μM) was “increased” and the protein translation ([4]; ICG-001 0, 5, and 10 μM) was “overall increase in protein translation”.
